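Following 48 hours of exposure in 96-well plates, responses at five concentrations were used to interpolate endpoints linearly. GI50 is the concentration that inhibits growth by half. TGI denotes the concentration required for complete inhibition of growth.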
Experiments:
Test in all cases: DTP human tumour cell line panel, 48 h
BT-549 breast = system: BT-549 breast
786-0 renal = system: 786-0 renal
MCF7 breast = system: MCF7 breast
SR leukemia = system: SR leukemia
SNB-19 CNS = system: SNB-19 CNS
DU-145 prostate = system: DU-145 prostate
HOP-62 NSCLC = system: HOP-62 NSCLC
KM12 colon = system: KM12 colon
OVCAR-8 ovarian = system: OVCAR-8 ovarian
MALME-3M melanoma = system: MALME-3M melanoma

Row | Compound | GI50 (BT-549 breast) | TGI (BT-549 breast) | GI50 (786-0 renal) | TGI (786-0 renal) | GI50 (MCF7 breast) | TGI (MCF7 breast) | GI50 (SR leukemia) | TGI (SR leukemia) | GI50 (SNB-19 CNS) | TGI (SNB-19 CNS) | GI50 (DU-145 prostate) | TGI (DU-145 prostate) | GI50 (HOP-62 NSCLC) | TGI (HOP-62 NSCLC) | GI50 (KM12 colon) | TGI (KM12 colon) | GI50 (OVCAR-8 ovarian) | TGI (OVCAR-8 ovarian) | GI50 (MALME-3M melanoma) | TGI (MALME-3M melanoma)
1 | CCN(CC)CCC(CNc1c2ccc(Cl)cc2nc2ccc(OC)cc12)c1ccccc1 (stereo not drawn) | 1970 nM | 3780 nM | 1380 nM | 3110 nM | 505 nM | 1880 nM | 323 nM | 1180 nM | 1360 nM | 4200 nM | 1320 nM | 6090 nM | 1160 nM | 3110 nM | 996 nM | 4470 nM | 1260 nM | 3600 nM | 1870 nM | 3560 nM
2 | Cn1cnc2nc(Cl)nc(Cl)c21 | 10700 nM | 66600 nM | 1010 nM | > 100000 nM | 335 nM | 13200 nM | 599 nM | 28700 nM | 5790 nM | 57800 nM | 1650 nM | 4870 nM | 2550 nM | > 100000 nM | 430 nM | 2460 nM | 3500 nM | 26200 nM | 13600 nM | 50300 nM
3 | CN1CCN(Cc2ccc(NC(=O)c3cncc(C#Cc4c(N)ncc5ccc(F)cc45)c3)cc2C(F)(F)F)CC1 | 2140 nM | 8660 nM | 911 nM | 1810 nM | 297 nM | 1530 nM | 809 nM | 11300 nM | 3470 nM | 12000 nM | 1450 nM | 7020 nM | 1170 nM | 4670 nM | 5 nM | 939 nM | 1760 nM | 8030 nM | 166 nM | 743 nM
4 | CC1SC(c2cccc(Oc3ccccc3)c2)N(CCc2cccs2)C1=O (stereo not drawn) | 1040 nM | 2400 nM | 1200 nM | 2830 nM | 551 nM | 5070 nM | 585 nM | 4190 nM | 1640 nM | 9010 nM | 1600 nM | 3880 nM | 1600 nM | 3420 nM | 626 nM | 2490 nM | 1490 nM | 5060 nM | 1730 nM | 3580 nM
5 | Cc1nc2cc(NC(=O)CN3CCN(CCN4C(=O)c5cccc6cccc(c56)C4=O)CC3)ccc2s1 | 4860 nM | 24100 nM | 5910 nM | 19100 nM | 4080 nM | 15500 nM | 1190 nM | > 100000 nM | 6230 nM | 21400 nM | 5210 nM | 17100 nM | 3830 nM | 15100 nM | 4950 nM | 18400 nM | 2770 nM | 19400 nM | 4990 nM | > 100000 nM
6 | CC(=O)OC1C(OC/C2=C/C3[C@@H](C(C)C)CC=C(C)[C@@H]3CC(OC(=O)/C=C/c3cn(C)cn3)[C@]3(C)C=C[C@@]2(O)O3)OCC(O)C1O (stereo partly drawn) | 12.9 nM | 136 nM | 44.1 nM | > 50000 nM | 14.6 nM | > 50000 nM | 29.2 nM | > 50000 nM | 36.4 nM | > 50000 nM | 15.5 nM | 47.5 nM | 24.6 nM | – | 12.3 nM | – | 44.3 nM | > 50000 nM | 19.5 nM | > 50000 nM

Source: PubChem BioAssay (NCI)
